The values below come from US11059718B2, “Methods and compositions using peptides and proteins with C-terminal elements” (Sanford Burnham Prebys Medical Discovery Institute, priority 2009, dated 2021).

In series [1] the test system is heart (cardiomyocyte apoptosis). As to the kind of experiment: TUNEL staining of heart sections after DOX-liposome treatment. Format: in vivo, mice. Conditions: 1 mg DOX/kg + iRGD daily, 17 days. How it is done:
(FIGS. 14A and 14B) Nude mice bearing orthotopic 22Rv1 human prostate tumors were intravenously injected with DOX-liposomes (3 mg DOX/kg) followed 5 min later by 100 nmol iRGD or PBS. Tumors and tissues were collected 3 hours later. In (FIG. 14A), the tumors were sectioned and stained with an anti-CD31 antibody. The doxorubicin is represented by the light specs that look like four halos in the left panel. Scale bars=200 μm, n=3. In (FIG. 14B), DOX in the tissues was quantified. […] The tumors were harvested and weighed after 17 days of treatment. The number of mice in each group was 5. One of 3 experiments that gave similar results is shown. (FIG. 14D) TUNEL staining was performed immunohistochemically on tissue sections of the tumor and heart samples from the treatment study, and quantified for positivity. Statistical analyses were performed with Student's r-test in (FIG. 14B), and ANOVA in (FIG. 14C) and (FIG. 14D); error bars, s.e.m.; n.s., not significant; single asterisk, p<0.05; double asterisk, p<0.01; triple asterisk, p<0.001. […]
Cryo-sections were immunohistochemically stained, scanned with a Scanscope CM-1 scanner, and positively stained areas were quantified with the ImageScope software (Aperio Technologies, Vista, Calif.; Sugahara et al., 2009). […]

Series [2] deals with orthotopic 22Rv-1 human prostate cancer xenografts. Conditions: mouse, in vivo.
Description: The circulation time was 2 hrs. for the free peptides, 15 min. for the peptide-displaying phage, and 3 hrs. for the peptide-coupled micelles. […] Representative fields from multiple sections of each of these three tumors are shown. Scale bars=50 μm. […] The samples were subjected to image analysis with Scanscope CM-1 scanner for quantification of the FAM-positive areas. Statistical analysis was performed with Student's t-test. n=3; error bars, s.e.m.; triple asterisk, p<0.001.
The test system of a further series is tumor. Conditions: VEGF locally superfused on tumors; cited from earlier work.

`N=C(N)NCCC[C@@H]1NC(=O)[C@@H](N)CSSC[C@@H](C(=O)O)NC(=O)[C@H](CC(=O)O)NC(=O)[C@@H]2CCCN2C(=O)CNC(=O)[C@H](CCCCN)NC(=O)[C@H](CC(=O)O)NC(=O)CNC1=O` [iRGD]: the “cardiomyocyte apoptosis (TUNEL), combo group” value in series [1] is given as “minimally present”. For the same molecule, in series [2], the “homing to normal tissue” value is “does not detectably home to any normal tissue”.
As to VEGF, the “enhancement of extravasation of albumin and nanoparticles within the tumor” value with tumor was “up to 4 fold”.
